Data from patent publication US6727277B1, “Compounds affecting cholesterol absorption” (Kansas State University Research Foundation, priority 2002, dated 2004).

Columns and labels:
[1] = tested on: lymphatic absorption of cholesterol; assay: Lymphatic absorption of 14C-cholesterol in lymph-cannulated rats infused with lipid emulsion; assay type: in vivo, rat
Procedure: (§1) Ten male Sprague-Dawley rats (Harlan Sprague Dawley, Inc., Indianapolis, Ind.) weighing 274.3±7.8 grams were housed individually in plastic cages in an environmentally controlled room of illumination (12:12-h light/dark cycle with the dark period from 0330 to 1530), humidity (60-70%), and temperature (22-25° C.) throughout the study. Rats had free access to deionized water and a nutritionally adequate diet (Table 1) containing soybean oil as the fat source and egg white as the protein source. The diet was formulated according to AIN-93G recommendations (In: Trace Elements in Laboratory Rodents (Watson, R. R., ed.), pp. 3-37. CRC Press, Boca Raton, Fla.). Animals were cared for in an animal care facility accredited by the American Association for the Accreditation of Laboratory Animal Care. Rats were maintained in accordance with the policies and guidelines for animal care and use procedures of the Kansas State University Institutional Animal Care and Use Committee.
At 6 wk, rats were starved overnight for 17 h but allowed water ad libitum prior to the surgical placement of a lymph cannula and duodenal infusion catheter. The mesenteric lymph duct was cannulated as described in Koo et al., J. Nutr. 131: 717-722 (2001). Briefly, while rats were under anesthesia (2.0% halothane in 2.0 L O2/min delivered via a halothane vaporizer), a midline abdominal incision was made. […] The cannula was fixed in place with ethyl cyanoacrylate glue (Elmer's Products, Columbus, Ohio) and externalized through the right flank. An indwelling infusion catheter (Silastic® laboratory tubing, i.d. 1.0 mm, o.d. 2.2 mm; Dow Coming, Midland, Mich.) was introduced via the gastric fundus into the upper duodenum and secured in place with a purse-string suture (4-0 Silk, Ethicon, Somerville, N.J.) around the fundic incision. The infusion catheter was exteriorized alongside the lymph cannula. After the abdominal incision was closed, the rats were placed in restraining cages and housed in a recovery chamber at 30° C. for postoperative recovery for 22-24 h. During the recovery period, rats were infused continuously with glucose in phosphate buffered saline (PBS) (in mmol/L: 277 glucose, 6.75 Na2HPO4, 16.5 NaH2PO4, 115 NaCl, and 5 KCl; pH 6.7) v infusion catheter at 3.0 mL/h by a syringe pump (Harvard Apparatus, Model 935, South Natick, Mass.) to ensure adequate hydration and nutritional status of the animals.
After postoperative recovery, each rat was infused with a lipid emulsion at 3 mL/h for 8 h via the duodenal catheter in subdued light. The lipid emulsion consisted of 451.8 μmol triolein (95%, Sigma Chemical, St. Louis, Mo.), 33.3 kBq [4-^14C]-cholesterol (^14C-CH; specific activity, 1.85 GBq/mmol, American Radiolabeled Chemicals, St. Louis, Mo.), 20.7 μmol cholesterol, 3.1 μmol α-tocopherol (all-rac-dl-α-tocopherol, 97%, Aldrich Chemical, Milwaukee, Wis.) as an antioxidant, and 396.0 μmol sodium taurocholate (Sigma Chemical, St. Louis, Mo.) in 24 mL of PBS buffer, pH 6.5. For half of the rats, the lipid emulsion contained 114.9 μmol compound 1 (41.9 mg). Lipid emulsion was prepared under a gentle N2 stream and subdued light for 55 min using a microprocessor-controlled ultrasonicator equipped with a microtip (XL-2020 Ultrasonic Liquid Processor, Misonix, Farmingdale, N.Y.).
(§2) During the duodenal infusion of lipid emulsion, lymph samples were collected hourly in preweighed ice-chilled centrifuge tubes containing 4 mg Na2-EDTA and 30 μg n-propyl gallate (Sigma Chemical, St. Louis, Mo.) as antioxidants. A portion of each lymph sample (100 μL) was mixed with scintillation liquid (ScintiVerse; Fisher Scientific, Fair Lawn, N.J.) and counted by scintillation spectrometry (Beckman LS-6500; Beckman Instruments, Fullerton, Calif.). The total ^14C-radioactivity appearing in hourly lymph volume (the hourly rates of ^14C-CH absorption) was expressed as a percentage of the total radioactivity infused (% dose). All samples were ice chilled and handled in subdued light. […]

Sprague-Dawley rats = assay: Observation of behaviour and visual examination of organs of infused rats; assay type: in vivo, rat
Excerpt: Rats were sacrificed at the day end of the infusion, and the intestine and other organs were dissected and visually examined.

[2] = tested on: cholesterol ester transfer protein (CETP); assay: CETP activity, crude CETP preparation derived from hamster plasma; assay type: biochemical; conditions: in vitro
Procedure: The inhibitory effect of compound 1 on the activity of cholesterol ester transfer protein (CETP) was measured, using a crude CETP preparation derived from hamster plasma.

[3] = tested on: lymphatic absorption of oleic acid; assay: Lymphatic absorption of oleic acid (triolein) in lymph-cannulated rats, fatty acid analysis of lymph; assay type: in vivo, rat
Procedure: as §1, with “Animals were cared for in an animal care facility accredited by the American Association for the Accreditation of Laboratory Animal Care. Rats were maintained in accordance with the policies and guidelines for animal care and use procedures of the Kansas State University Institutional Animal Care and Use Committee.” left out
as §2, with “dose).” for “dose). All samples were ice chilled and handled in subdued light.”

[4] = molecular target: T1, cholesterol ester transfer protein (CETP) (Homo sapiens, UniProt P11597); assay: Inhibition of CETP, purified CETP preparation; assay type: biochemical; conditions: FIG. 3, FIG. 4
T1 sequence (P11597 18-493): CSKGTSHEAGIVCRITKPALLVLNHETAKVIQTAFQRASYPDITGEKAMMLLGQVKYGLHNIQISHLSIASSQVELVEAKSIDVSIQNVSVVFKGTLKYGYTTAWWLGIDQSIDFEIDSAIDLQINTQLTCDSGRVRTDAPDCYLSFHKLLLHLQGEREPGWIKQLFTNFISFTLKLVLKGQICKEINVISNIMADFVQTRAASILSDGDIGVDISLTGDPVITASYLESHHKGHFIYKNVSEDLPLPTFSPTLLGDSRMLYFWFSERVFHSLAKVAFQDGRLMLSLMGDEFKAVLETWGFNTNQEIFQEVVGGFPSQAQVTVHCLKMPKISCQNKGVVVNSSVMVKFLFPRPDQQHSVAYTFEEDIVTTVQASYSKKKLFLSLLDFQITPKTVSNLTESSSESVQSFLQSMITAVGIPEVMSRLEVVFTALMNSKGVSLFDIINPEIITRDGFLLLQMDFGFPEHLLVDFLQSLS
Procedure: The effect of compound 24 on inhibition of CETP was tested using a purified CETP preparation. CETP was purified and assayed according to procedures described in Tomada, H.; Tabata, N.; Shinose, M.; Takahashi Y.; Woodruff, H. B.; Omura, S. J. Antibiotics, 52: 1101-1107 (1999).

[5] = rats, 8 h duodenal infusion of lipid emulsion with 114.9 μmol (41.9 mg) compound 1, means ± SD, n = 5

SMILES	14C-cholesterol absorbed, cumulative ([1]; 1 h, rats, means ± SD, n = 5) [% dose]	14C-cholesterol absorbed, cumulative ([1]; 2 h, rats, means ± SD, n = 5) [% dose]	14C-cholesterol absorbed, cumulative ([1]; 3 h, rats, means ± SD, n = 5) [% dose]	14C-cholesterol absorbed, cumulative ([1]; 4 h, rats, means ± SD, n = 5) [% dose]	14C-cholesterol absorbed, cumulative ([1]; 5 h, rats, means ± SD, n = 5) [% dose]	14C-cholesterol absorbed, cumulative ([1]; 6 h, rats, means ± SD, n = 5) [% dose]	14C-cholesterol absorbed, cumulative ([1]; 7 h, rats, means ± SD, n = 5) [% dose]	14C-cholesterol absorbed, cumulative ([1]; 8 h, rats, means ± SD, n = 5) [% dose]	percent cholesterol absorption ([1]; after 8 hours of treatment, 41.9 mg of compound 1, control 37.69%) [%]	total cholesterol absorption compared to control rats ([1]; rats infused for eight hours)	14C-CH absorption [1, 5] [% dose/8 h]	abnormalities of intestine and other organs, visual examination (Sprague-Dawley rats; rats sacrificed at end of infusion)	gross motor or behavioral abnormalities (Sprague-Dawley rats; rats, 8 h infusion)	dose above which HDL total cholesterol, HDL free cholesterol and HDL cholesterol ester increased [2]	absorption of triolein compared to control rats ([3]; rats infused for eight hours)	Oleic acid absorbed in lymph [3, 5] [μmol/8 h]	IC50 [4] [µM]
CC1(C)CCC[C@]2(C)C3=Cc4c(cc(O)c(O)c4Cl)O[C@]3(C)CC[C@@H]12 [Compound 1, (4aS,6aR,12bS)-2H-11-Chloro-1,3,4,4a,5,6,6a,12b-octahydro-4,4,6a,12b-tetramethyl-benzo[a]xanthene-9,10-diol]	0.12 ± 0.04	1.22 ± 0.25	2.70 ± 0.42	4.18 ± 0.92	5.68 ± 1.37	7.32 ± 1.78	9.13 ± 2.41	10.95 ± 3.29	10.95	significantly less	10.95 ± 3.29	No abnormalities were found	no gross motor or behavioral abnormalities	exceeded 250 μM	significantly less	253 ± 79	
CC1(C)CCC[C@]2(C)C3=CC4=C(Cl)C(=O)C(=O)C=C4O[C@]3(C)CC[C@@H]12 [Compound 24, (4aS,6aR,12aR,12bS)-2H-11-Chloro-1,3,4,4a,5,6,6a,9,10,12b-decahydro-4,4,6a,12b-tetramethyl-benzo[a]xanthene-9,10-dione]																	31
C=Cc1ccc(OC(=O)c2ccc(O)c(N=O)c2)cc1.C=Cc1ccc(OC(=O)c2ccc(O)c(N=O)c2)cc1.C=Cc1ccc(OC(=O)c2ccc(O)c(N=O)c2)cc1.[Fe+2] [Ferroverdin A, reference compound]																	~22
